Results taken from ChEMBL document CHEMBL1201862, “PubChem BioAssay data set” (2004).
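In this assay, cells in 96-well plates receive the compound at five concentrations for 48 hours. Endpoints are linearly interpolated between the surrounding concentrations. GI50: concentration for 50% inhibition of growth.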 Activity calls are given as the source filed them. No stated cut-off is given here; in the data, active = GI50 up to about 1.1 µM and inactive = higher. Non-standard residues stand in square brackets, D forms with d. Residues, ends and D or L forms follow the SMILES beside them. ξ: configuration not given here. *: point of attachment. ξHyp = O=C(O)C1CC(O)CN1; Cbz = O=C(OCc1ccccc1)*

How the values were obtained:
Experiment in all cases: DTP human tumour cell line panel, 48 h
[1] = tested on: Hs-578T
[2] = tested on: UACC-257
[3] = tested on: MCF7
[4] = tested on: SR
[5] = tested on: PC-3
[6] = tested on: IGROV-1
[7] = tested on: EKVX
[8] = tested on: DU-145
[9] = tested on: HT-29
[10] = tested on: OVCAR-8
[11] = tested on: NCI/ADR-RES
[12] = tested on: ACHN
[13] = tested on: CCRF-CEM
[14] = tested on: LOX IMVI
[15] = tested on: KM12
[16] = tested on: RXF 393
[17] = tested on: SK-MEL-28
[18] = tested on: MOLT-4
[19] = tested on: BT-549
[20] = tested on: SK-OV-3

Measured: GI50

NC(=O)CNC(=O)C1CC(O)CN1C(=O)OCc1ccccc1 (stereo not given) (Cbz-[ξHyp]-Gly-NH2)
inactive: [1] > 100 µM | [2] > 100 µM | [3] > 100 µM | [4] > 100 µM | [5] > 100 µM | [6] > 100 µM | [7] 41.4 µM | [8] > 100 µM | [9] > 100 µM | [10] > 100 µM | [11] > 100 µM | [12] > 100 µM | [13] > 100 µM | [14] > 100 µM | [15] > 100 µM | [16] > 100 µM | [17] > 100 µM | [18] > 100 µM | [19] > 100 µM | [20] > 100 µM

COc1ccc(-c2cn3c(nc4ccccc43)c(C)n2)cc1
inactive: [1] 41.6 µM | [2] > 61.9 µM | [3] 12.2 µM | [4] > 77.4 µM | [5] 72.3 µM | [6] 28.8 µM | [7] 83 µM | [8] 51.1 µM | [9] > 100 µM | [10] 34.4 µM | [11] 33.6 µM | [12] 45.2 µM | [13] > 100 µM | [14] > 93.5 µM | [15] > 100 µM | [16] 44.5 µM | [17] 95.5 µM | [18] > 100 µM | [19] 33.7 µM | [20] 10.2 µM

COC(=O)c1ccccc1NC(=O)C(=O)CC(=O)c1ccccc1NC1=CC(=O)C(=O)c2ccccc21
inactive: [1] 7.45 µM | [2] 6.05 µM | [3] 8.87 µM | [4] 2.67 µM | [5] 10.9 µM | [6] 13.2 µM | [7] 44.8 µM | [8] 23.2 µM | [9] 44.5 µM | [10] 7.01 µM | [11] 2.33 µM | [12] 14.5 µM | [13] 3.17 µM | [14] 1.68 µM | [15] 15.2 µM | [16] 15.6 µM | [17] 13.1 µM | [18] 3.98 µM | [19] 15.2 µM | [20] 32.5 µM

COC(=O)C(C(=O)C(=O)Nc1ccccc1C#N)c1nc2ccc([N+](=O)[O-])cc2nc1O (stereo not given)
inactive: [1] > 100 µM | [2] > 100 µM | [3] > 100 µM | [4] > 100 µM | [5] > 100 µM | [6] 94.4 µM | [7] 78 µM | [8] > 100 µM | [9] > 100 µM | [10] > 100 µM | [11] 92.5 µM | [12] > 100 µM | [13] 94 µM | [14] > 100 µM | [15] 37.8 µM | [16] > 100 µM | [17] > 100 µM | [18] > 100 µM | [19] > 100 µM | [20] > 100 µM
